Test results published in US20120295838A1, “Selective poly-substituted glycine antibiotics and related compositions” (priority 2008, published 2012).
In brackets after ≈: the same amount, converted by molar mass. Several values for one entry are separate records, joined by “and”; a condition that tells them apart may be missing. Identical values can stand only once. Like-named read-outs stand apart in the source and are kept apart here. Numbered stars: 1 amine (or outer) side, 2 acyl side, 3 side chain; on linkers, the order of the positions; unused ones are H or OH. Square brackets hold non-standard residues; d marks the D form. Ends that are not written are not given here. Peptide text beside a SMILES is read from it. Gly(N-CH2CH2-imidazol-4-yl) = O=C(O)CNCCc1c[nH]cn1; X1 = CC(C)[C@H](C)N(CC(=O)[*:2])[*:1]; Nspe = C[C@H](NCC(=O)O)c1ccccc1; Nphe = O=C(O)CNCc1ccccc1; Nlys = NCCCCNCC(=O)O

How the values were obtained:
Assay type in all cases: cell-based
B. subtilis ATCC 6633 = settings: for Selectivity ratio SR B. subtilis: Table 6, ratio of 10% hemolytic dose to B. subtilis MIC
In short: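 Broth microdilution MICs per CLSI M7-A6 in cation-adjusted Mueller-Hinton broth, using 1×10^6 CFU/mL inoculum added 1:1 to twofold serial peptoid dilutions. Values reproducible across three independent experiments, each with two parallel trials.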

E. coli ATCC 35218 = settings: for Selectivity ratio SR E. coli: Table 6, ratio of 10% hemolytic dose to E. coli MIC; for SR: Table 8, calculated as HD10/E. coli MIC
[1] = test system: Klebsiella pneumoniae ATCC 33495; settings: for Selectivity ratio (SR): Table 7B, 10% hemolytic dose divided by MIC
Description: (§1) Antibacterial assays. MICs were determined according to CLSI M7-A6 protocols in a 96-well microtiter plate. In test wells, 50 uL bacterial inoculum (5×10^5 CFU/ml) in Mueller-Hinton broth (MHB) was added to 50 μL peptoid solution in MHB (prepared by 1:2 serial dilutions). Positive controls contained 50 μL inoculum and 50 μL MHB without peptoid. […] MIC values reported were reproducible between three independent experimental replicates, each consisting of two parallel trials. Broad-spectrum antimicrobial susceptibility testing was performed against BSL2 pathogens by Nova Biologicals, Inc. (Conroe, Tex.).
(§2) Broad-spectrum antibacterial assays. MICs of compounds were determined by microdilution procedure in Mueller-Hinton broth (MHB) in accordance with CLSI M7-A6 protocols in a manner similar to that described for the screen antibacterial assays. Inoculated microtiter plates were incubated at 35° C. for 24 hours prior to the result being recorded. Four ATCC strains that were used as standards are recommended by CLSI: Pseudomonas aeruginosa ATCC 27853, Escherichia coli ATCC 25922, Staphylococcus aureus ATCC 29213 and Enterococcus faecalis ATCC 29212. Other strains from the ATCC collection include Proteus vulgaris ATCC 49132, Proteus mirabilis ATCC 35659, Klebsiella pneumoniae ATCC 33495, Enterobacter aerogenes ATCC 35029 and Serratia marcescens ATCC 13880. S. aureus NRS100 (COL) is a well characterized methicillian-resistant S. aureus (MRSA) strain. The strains S. aureus VAN1 and S. aureus VAN2, vancomycin-resistant MRSA strains that were isolated in Michigan and Pennsylvania, were the first vancomycin-resistant strains clinically isolated. S. aureus NRS 119 and S. aureus NRS 120 are linezolid-resistant isolates from the Network on Antimicrobial Resistance in S. aureus (NARSA) collection. E. faecalis 99 and E. faecium 106 are vancomycin-resistant enterococcal strains.

[2] = test system: Staphylococcus aureus NRS100 (COL); settings: for Selectivity ratio (SR): Table 7B, 10% hemolytic dose divided by MIC, S. aureus NRS100 (COL)
Description: as §1, §2

[3] = test system: Staphylococcus aureus NRS120; settings: for Selectivity ratio (SR): Table 7B, 10% hemolytic dose divided by MIC, S. aureus NRS120
Description: as §1, §2

[4] = test system: Staphylococcus aureus VAN1; settings: for Selectivity ratio (SR): Table 7B, 10% hemolytic dose divided by MIC, S. aureus VAN1
Description: as §1, §2

[5] = test system: Staphylococcus aureus VAN2; settings: for Selectivity ratio (SR): Table 7B, 10% hemolytic dose divided by MIC, S. aureus VAN2
Description: as §1, §2

human erythrocytes = assay: Hemolysis assay
In short: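 Peptoid dilution series (1:2 in PBS) combined with equal volume of 20 vol % human red cells from heparinised blood, 37 °C for 1 h. Released hemoglobin measured as supernatant absorbance at 350 nm post-centrifugation, scaled between PBS-only wells and 0.2 vol % Triton X-100 total lysis.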

Row | Compound | Selectivity ratio SR B. subtilis (B. subtilis ATCC 6633) | Selectivity ratio SR E. coli (E. coli ATCC 35218) | Selectivity ratio (SR) ([1]; K. pneumoniae ATCC 33495) | Selectivity ratio (SR) [2] | Selectivity ratio (SR) [3] | Selectivity ratio (SR) [4] | Selectivity ratio (SR) [5] | HD10 (human erythrocytes) | HD50 (human erythrocytes) | MIC for B. subtilis ATCC 6633 (B. subtilis ATCC 6633) [µM] | MIC for E. coli ATCC 35218 (E. coli ATCC 35218) [µM] | SR (E. coli ATCC 35218) | other results
1 | CC(C)[C@H](C)N(CC(=O)N(CC(=O)N(CCCCN)CC(=O)N(CC(=O)N(CC(=O)N(CCCCN)CC(=O)N(CC(=O)N(CC(=O)N(CCCCN)CC(=O)N(CC(=O)N(CC(N)=O)[C@@H](C)c1ccccc1)[C@@H](C)C(C)C)[C@@H](C)c1ccccc1)[C@@H](C)C(C)C)[C@@H](C)c1ccccc1)[C@@H](C)C(C)C)[C@@H](C)c1ccccc1)C(=O)CNCCCCN [1-Nsdp2,5,8,11, H-(Nlys-Nsdp-Nspe)4-NH2] (H-[Nlys][X1][Nspe][Nlys][X1][Nspe][Nlys][X1][Nspe][Nlys][X1][Nspe]-NH2) | 142 | > 9.7 and 9.7 | 23 | 23 | 23 | 23 | 23 |  |  |  |  |  | Selectivity ratio SR E. coli (E. coli ATCC 35218; listed as 1-Nspd2,5,8,11): 9.7; MIC ([1]; ATCC 33495): 8 µg/mL (≈ 4.75 µM); MIC ([2]; NRS100 (COL)): 8 µg/mL (≈ 4.75 µM); MIC ([3]; NRS120): 16 µg/mL (≈ 9.51 µM); MIC ([4]; VAN1): 8 µg/mL (≈ 4.75 µM); MIC ([5]; VAN2): 8 µg/mL (≈ 4.75 µM)
2 | C[C@@H](c1ccccc1)N(CC(=O)N(CCc1cnc[nH]1)CC(=O)N(CCCCN)CC(=O)N(CC(=O)N(CC(=O)N(CCCCN)CC(=O)N(CC(=O)N(CCc1cnc[nH]1)CC(N)=O)[C@@H](C)c1ccccc1)[C@@H](C)c1ccccc1)[C@@H](C)c1ccccc1)C(=O)CN(CCCCN)C(=O)CN(C(=O)CN(C(=O)CNCCCCN)[C@@H](C)c1ccccc1)[C@@H](C)c1ccccc1 [1-Nhis6,12, H-(Nlys-Nspe-Nspe-Nlys-Nspe-Nhis)2-NH2] (H-[Nlys][Nspe][Nspe][Nlys][Nspe][Gly(N-CH2CH2-imidazol-4-yl)][Nlys][Nspe][Nspe][Nlys][Nspe][Gly(N-CH2CH2-imidazol-4-yl)]-NH2) |  |  |  |  |  |  |  | >200/>200 μM | >200/>200 μM | 0.78 to 1.6 | 50 | >4.0 | 
3 | GIGKFLKKAKKFGKAFVKILKK-NH2 [pexiganan, reference compound] | 44 | 11 | 23 | 11 | 2.8 | 11 | 23 |  |  |  | 3.1 to 6.3 | 12 | HD10 (human erythrocytes; human, 1 h, pH 7.4): 73 µM; HD50 (human erythrocytes; human, 1 h, pH 7.4): > 200 µM; MIC ([1]; Table 7A, K. pneumoniae ATCC 33495): 8 µg/mL; MIC ([2]; Table 7A, S. aureus NRS100 (COL) (MRSA)): 16 µg/mL; MIC ([3]; Table 7A, S. aureus NRS120 (linezolid-resistant)): 64 µg/mL; MIC ([4]; Table 7A, S. aureus VAN1 (MRSA, vancomycin-resistant)): 16 µg/mL; MIC ([5]; Table 7A, S. aureus VAN2 (MRSA, vancomycin-resistant)): 8 µg/mL
4 | NCCCCNCC(=O)N(CC(=O)N(CC(=O)N(CCCCN)CC(=O)N(CC(=O)N(CC(=O)N(CCCCN)CC(=O)N(CC(=O)N(CC(=O)N(CCCCN)CC(=O)N(CC(=O)N(CC(N)=O)Cc1ccccc1)Cc1ccccc1)Cc1ccccc1)Cc1ccccc1)Cc1ccccc1)Cc1ccccc1)Cc1ccccc1)Cc1ccccc1 [1achiral, H-(Nlys-Npm-Npm)4-NH2] (H-[Nlys][Nphe][Nphe][Nlys][Nphe][Nphe][Nlys][Nphe][Nphe][Nlys][Nphe][Nphe]-NH2) | 235 | 15 | 39 | 39 | 19 | 39 | 39 | 180 µM | > 200 µM | 1.6 | 12.5 | 14 | 
